This is an account of results in US20250059141A1, “TLR MODULATOR AND USE THEREOF” (DUALITY BIOLOGICS (SUZHOU) CO., LTD., priority 2021, published 2025).

Experiment [1] deals with T1, hTLR7 (human Toll-like receptor 7) (Homo sapiens, UniProt Q9NYK1).
T1 construct: host or cells: HEK-Blue hTLR7 (HEK293-derived reporter cells)
T1 sequence (Q9NYK1 27-1049): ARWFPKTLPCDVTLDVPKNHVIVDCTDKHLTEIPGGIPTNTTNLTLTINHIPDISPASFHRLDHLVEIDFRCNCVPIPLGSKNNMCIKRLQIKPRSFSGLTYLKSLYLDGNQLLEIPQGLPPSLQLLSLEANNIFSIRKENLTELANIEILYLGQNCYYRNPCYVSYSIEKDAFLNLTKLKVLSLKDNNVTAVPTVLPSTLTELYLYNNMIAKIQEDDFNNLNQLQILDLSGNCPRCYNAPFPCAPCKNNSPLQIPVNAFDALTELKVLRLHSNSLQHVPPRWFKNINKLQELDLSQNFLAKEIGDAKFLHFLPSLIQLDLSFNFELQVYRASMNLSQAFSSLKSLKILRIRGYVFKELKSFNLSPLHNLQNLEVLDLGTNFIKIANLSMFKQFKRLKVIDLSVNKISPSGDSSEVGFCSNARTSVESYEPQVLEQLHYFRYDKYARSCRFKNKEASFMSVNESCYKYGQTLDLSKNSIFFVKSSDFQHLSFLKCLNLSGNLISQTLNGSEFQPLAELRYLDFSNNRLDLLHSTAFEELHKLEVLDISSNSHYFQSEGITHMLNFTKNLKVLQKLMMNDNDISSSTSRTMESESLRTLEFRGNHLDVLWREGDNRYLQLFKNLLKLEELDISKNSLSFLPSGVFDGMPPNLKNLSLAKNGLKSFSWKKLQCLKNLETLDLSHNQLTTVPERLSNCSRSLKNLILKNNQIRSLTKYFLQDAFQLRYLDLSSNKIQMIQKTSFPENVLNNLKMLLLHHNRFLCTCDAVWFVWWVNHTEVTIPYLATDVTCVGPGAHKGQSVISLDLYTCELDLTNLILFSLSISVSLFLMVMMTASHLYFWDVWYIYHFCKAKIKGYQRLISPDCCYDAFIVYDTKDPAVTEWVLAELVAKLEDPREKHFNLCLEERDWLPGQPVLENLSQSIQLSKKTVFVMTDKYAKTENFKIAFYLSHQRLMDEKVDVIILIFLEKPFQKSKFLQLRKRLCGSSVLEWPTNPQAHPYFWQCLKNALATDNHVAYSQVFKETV
Briefly: HEK-Blue hTLR7 reporter assay (QUANTI-Blue, OD650). The experiment is classed as cell-based. To be noted: HEK-Blue hTLR7 cells, 24 h, read-out: Reporter assay TLR7 EC50. The method, then:
(§1) In this example, the agonistic activity of the compounds of the present application on hTLR7 (human Toll-like receptor 7) and hTLR8 (human Toll-like receptor 8) was assessed; the induction activity of the compounds on human PBMCs for TNF-α and IFN-α production was assessed in human PBMCs (human peripheral blood mononuclear cells).
(§2) All compounds were formulated in DMSO into 30 mM stock solutions and preserved at 4° C. The reference compound ([…], Cat. No. tlrl-r848-5) was purchased from InvivoGen and formulated into a 5 mg/mL stock solution in DMSO and preserved in a freezer at −20° C. HEK-Blue hTLR7 and HEK-Blue hTLR8 cell lines were purchased from InvivoGen, and human PBMCs were purchased from Shanghai Saily Biotechnology Co., Ltd. (Cat. No. XFB—HP100B).
(§3) The major instruments used in this study were multifunctional microplate reader Flexstation III (Molecular Device), Envision (Perkin Elmer), M2e (Molecular Device), and Echo555 (Labcyte). 2.1 Agonistic activity of compounds on hTLR7 (human Toll-like receptor 7) and hTLR8 (human Toll-like receptor 8)
(§4) Compound dilution: The compounds of the present application are diluted in DMSO, for example, to about 15 mM. The reference compound was added to the plates in sequence after dilution. The compounds were serially 3-fold diluted to 10 concentrations and added to 96-well plates in duplicate.
(§5) For the negative control wells, DMSO was added at 0.2 μL/well, and the reference compound was added to the positive control wells. The final concentration of DMSO was 0.2%.
(§6) Cell plating: When an 80% confluence of HEK Blue hTLR7&8 cells in the culture flask was observed under a microscope, the culture medium was discarded, 10 mL of detection medium was added, and the cells were separated by pipetting. The cells were counted on a cytometer and diluted to 500,000 cells/mL. The cells were plated at 100 μL/50,000 cells/well in the 96-well plates containing the compounds. The compounds and cells were co-incubated at 37° C. in a 5% CO2 incubator for 24 hours.
(§7) Compound activity detection: 20 μL of cell supernatant was taken from each well and added to a plate containing QUANTI-Blue™ reagent at 180 μL/well. The plate was incubated at 37° C. for 1 hour, and the absorbance at 650 nm (OD650) was measured on the multifunctional microplate reader Flexstation III.
(§8) Compound activity data analysis: The OD650 values were analyzed by GraphPad Prism software and fitted to give dose-response curves of the compounds. The EC50 values of compounds were calculated.

Experiment [2] has as its target T2, hTLR8 (human Toll-like receptor 8) (Homo sapiens, UniProt Q9NR97).
T2 construct: host or cells: HEK-Blue hTLR8 (HEK293-derived reporter cells)
T2 sequence (Q9NR97 27-1041): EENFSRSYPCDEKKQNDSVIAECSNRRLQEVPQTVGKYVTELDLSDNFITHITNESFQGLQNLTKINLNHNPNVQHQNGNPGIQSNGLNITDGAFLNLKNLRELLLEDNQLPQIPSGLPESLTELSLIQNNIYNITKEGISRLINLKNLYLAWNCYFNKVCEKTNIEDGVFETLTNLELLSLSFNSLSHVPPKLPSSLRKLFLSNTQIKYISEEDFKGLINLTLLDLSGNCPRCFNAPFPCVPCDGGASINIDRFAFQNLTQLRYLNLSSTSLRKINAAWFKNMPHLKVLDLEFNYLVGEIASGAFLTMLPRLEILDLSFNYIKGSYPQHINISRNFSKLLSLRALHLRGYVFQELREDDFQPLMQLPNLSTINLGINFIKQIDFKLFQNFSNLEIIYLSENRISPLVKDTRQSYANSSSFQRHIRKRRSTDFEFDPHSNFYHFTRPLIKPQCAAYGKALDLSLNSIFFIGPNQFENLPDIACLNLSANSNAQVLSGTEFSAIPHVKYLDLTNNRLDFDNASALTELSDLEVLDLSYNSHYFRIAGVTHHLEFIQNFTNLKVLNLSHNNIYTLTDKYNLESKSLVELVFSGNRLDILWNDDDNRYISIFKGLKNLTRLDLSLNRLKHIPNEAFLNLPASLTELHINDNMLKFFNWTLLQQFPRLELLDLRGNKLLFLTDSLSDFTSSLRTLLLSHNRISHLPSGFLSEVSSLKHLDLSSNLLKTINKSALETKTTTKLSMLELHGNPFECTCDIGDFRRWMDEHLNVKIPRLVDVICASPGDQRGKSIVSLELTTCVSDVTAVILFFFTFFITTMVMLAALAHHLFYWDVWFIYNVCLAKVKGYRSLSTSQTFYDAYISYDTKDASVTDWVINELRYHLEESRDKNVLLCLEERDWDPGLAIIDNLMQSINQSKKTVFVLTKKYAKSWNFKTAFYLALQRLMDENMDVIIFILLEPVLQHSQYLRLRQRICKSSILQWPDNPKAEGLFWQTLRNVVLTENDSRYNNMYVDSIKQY
As to the kind of experiment: HEK-Blue hTLR8 reporter assay (QUANTI-Blue, OD650). To be noted: HEK-Blue hTLR8 cells, 24 h, read-out: Reporter assay TLR8 EC50. The class given is cell-based. The method, then: as §1, §2, §3, §4, §5, §6, §7, §8

Read-outs that look alike come from different tables or passages of the source.

Take `CCCN(OCc1ccc(N)cc1)C(=O)C1=Cc2ccc(C(=O)N3CCOCC3)cc2N=C(N)C1` [Compound 39]: the EC50 is 3550 nM in experiment [1] and 2.8 nM in experiment [2].
For the compound `CCCN(OCc1ccc(N)cc1)C(=O)C1=Cc2ccc(C(=O)N3CC[C@@H](O)C3)cc2N=C(N)C1` [Compound 46A], the EC50 was greater than 1000 nM in experiment [1] (class symbols) and 10 to 100 nM in experiment [2] (class symbols).
In the same order, the values of `CCCN(OCc1ccc(N)cc1)C(=O)C1=Cc2ccc(C(=O)N3CC[C@H](O)C3)cc2N=C(N)C1` [Compound 46B] are greater than 1000 nM and 10 to 100 nM.
